Test results published in patent US6844313B1, “Composition containing a meiosis activating substance” (Novo Nordisk A/S, priority 1999, dated 2005).
Converted amounts (≈) assume the structure as drawn. Read-outs that look alike come from different tables or passages of the source.

Tests used:
[1] = Solubility and appearance of FF-MAS in water/ethanol containing HSA before evaporation; type: physicochemical; details: Example 3; ethanol/water mixture containing HSA
Method: Prepare a saturated ethanolic solution of FF-MAS. Blend with an aqueous solution of the additive in the ration 1:2,5. By visual inspection control that surplus FF-MAS is available in the solution. Rotate the solution for 24 hours at room temperature. Filter the solution through 0,22 […] filter, determine the content of FF-MAS by HPLC and calculate the solubility. Transfer 350μl to 4-well dish and evaporate to dryness at room temperature. Add 500μl MEM AL- PHA medium (Gibcobal). If a clear solution is obtained within half an hour, the composition is tested on oocytes obtained from immature female mice. % GVB obtained is at least 50%, preferable 80%, vide example 1.
In this example, 3 products were prepared. Referring to the table below, the stock solution of FF-MAS used for product 1, 2, and 3 contained 50, 500 and 3330 μg/ml, respectively. For each of the products, the stock solution of HSA contained 20% HSA. The amount of said stock solutions used is stated in the table. For example, for product 1, 400 μl of the FF-MAS stock solution was mixed with 1000 μl of the HSA stock solution. After mixing of these stock solutions, the solutions were clear, and no precipitation was observed therein. After mixing, the amount thereof stated in the table was transferred to 4-well multi-dishes (Nuclon, Denmark). […]

[2] = Solubility of FF-MAS in water, ethanol and ethanol/water; type: physicochemical
Method: The solubility of a preferred MAS, i.e., FF-MAS, in water is very low, i.e., approximately 20 picogram/ml (corresponding to 2×10^−5 μg/ml), and in ethanol the solubility is substantially higher, i.e., approximately 4 mg/ml. According to our preliminary investigations, the highest solubility of FF-MAS in a mixture of ethanol and water (1:2.5) is approximately 0.4 mg/ml.

For `CC(C)=CCC[C@@H](C)[C@H]1CC=C2C3=C(CC[C@@]21C)[C@@]1(C)CC[C@H](O)C(C)(C)[C@@H]1CC3` [FF-MAS, 4,4-dimethyl-5 α-cholesta-8,14,24-triene-3β-ol], the “highest concentration of FF-MAS dissolved” value [1] was 0.95 mg/mL, the solubility ([2]; ethanol, organic solvent or mixture, read-out: solubility in ethanol) was roughly 4000 µg/mL (≈ 9.74 mM) and the solubility ([2]; ethanol/water (1:2.5), aqueous with cosolvent or surfactant or cyclodextrin, ethanol and water (1:2.5), no additive, preliminary investigations, read-out: highest solubility in a mixture of ethanol and water (1:2.5)) was roughly 400 µg/mL (≈ 0.974 mM). The solubility in water ([2]; water) was “approximately 20 picogram/ml”.
